This test has as its system MTT (mouse pheochromocytoma). The experiment in a line: IC50 of cell viability (ATP content). The settings on record: (24 or 48 h). The procedure, abridged:
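After overnight culture at 37°C, 5% CO2 in white 1536-well plates, MTT mouse pheochromocytoma cells were given 23 nl of library compound in DMSO by pintool across 8 concentrations, spanning final 0.5 nM to 46 µM. Following 24 or 48 hrs, CellTiter-Glo luminescence was read after 15 minutes and normalised against positive-control (100%) and DMSO (0%) wells. A four-parameter logistic model provided the IC50.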

Structures can show the parent of a compound that is named as a salt. Bounds are passed on as bounds.

With `CO[C@H]1[C@@H](O)CC(O[C@@H]1C)OC2[C@@H](O)CC(O[C@@H]2C)OC3[C@@H](O)C[C@@H](O[C@@H]3C)OC4CC[C@@]5(C)C(CCC6C5CC(O)[C@]7(C)[C@@H](CCC67O)C/8=C/C(=O)OC8)C4` (some centres not stated) [METILDIGOXIN], the “IC50 of cell viability” value was more than 46 µM. In the case of `CN1C(=O)/C(=N\NC(N)=S)c2ccccc21` [METISAZONUM], the “IC50 of cell viability” value is more than 46 µM. Regarding `C[N+](C)(C)CCOC(=O)C(O)(c1ccccc1)c1ccccc1` [METOCINII IODIDUM], the “IC50 of cell viability” value is more than 46 µM. On to `CCN(CC)CCNC(=O)c1cc(Cl)c(N)cc1OC` [METOCLOPRAMIDE], for which the “IC50 of cell viability” value is more than 46 µM. As to `COc1ccc2cc1Oc1cc3c(cc1OC)CC[N+](C)(C)C3Cc1ccc(cc1)Oc1c(OC)c(OC)cc3c1C(C2)[N+](C)(C)CC3` (configuration not stated) [METOCURINE IODIDE], the “IC50 of cell viability” value is more than 46 µM.

On to `COC(=O)c1cncn1C(C)c1ccccc1` (configuration not stated) [METOMIDATE HYDROCHLORIDE], for which the “IC50 of cell viability” value is more than 46 µM.

As to `COC(=O)C1C2CC3c4[nH]c5cc(OC)ccc5c4CCN3CC2CC(OC)C1OC` (configuration not stated) [METOSERPATE HYDROCHLORIDE], the “IC50 of cell viability” value was more than 46 µM. The same measure for `Cc1ncc([N+](=O)[O-])n1CCO` [METRONIDAZOLE]: more than 46 µM; for `CC1(C)S[C@@H]2[C@H](NC(=O)[C@H](NC(=O)N3CCN([S+](C)(=O)[O-])C3=O)c3ccccc3)C(=O)N2[C@H]1C(=O)O` [MEZLOCILLIN SODIUM MONOHYDRATE]: more than 46 µM; for `CC[N+](CC)(CC)CCOc1ccc(/C=C/c2ccccc2)cc1` [MG 624]: more than 46 µM.

Take `CN1CCN2c3ccccc3Cc3ccccc3C2C1` (configuration not stated) [MIANSERIN]: the “IC50 of cell viability” value is more than 46 µM. As for `O=C(O)[C@H]1CN(C/C=C/P(=O)(O)O)CCN1` [MIDAFOTELUM], the “IC50 of cell viability” value is more than 46 µM. The figure for `CC1=NC=C2C\N=C(\C3=CC=CC=C3F)C4=CC(=CC=C4[N]12)Cl` [MIDAZOLAM HYDROCHLORIDE] is more than 46 µM; for `COP(=O)(OC)OC(c1ccc(Cl)cc1)P(=O)(OC)OC` (configuration not stated) [MIFOBATUM] it is more than 46 µM.

In the case of `OCCN1CC(O)C(O)C(O)C1CO` (configuration not stated) [MIGLITOL], the “IC50 of cell viability” value is more than 46 µM. As for `CCCCN1CC(O)C(O)C(O)C1CO` (configuration not stated) [MIGLUSTAT], the “IC50 of cell viability” value is more than 46 µM. Turning to `CCN(CC)C(=O)[C@@]1(c2ccccc2)C[C@@H]1CN` [MILNACIPRAN], the “IC50 of cell viability” value is more than 46 µM. Turning to `CCCCCCCCCCCCCCCCOP(=O)([O-])OCC[N+](C)(C)C` [MILTEFOSINE], the “IC50 of cell viability” value is more than 46 µM. With `Cc1cc(-c2ccccc2)nnc1NCCN1CCOCC1.Cl.Cl` [MINAPRINE HYDROCHLORIDE], the “IC50 of cell viability” value is more than 46 µM. As for `Cl.CN(C)C\1[C@@H]2C[C@H]3CC4=C(C(=CC=C4N(C)C)O)C(=O)\C3=C(O)\[C@]2(O)C(=O)\C(=C1O)C(N)=O` (some centres not stated) [MINOCYCLINE HYDROCHLORIDE], the “IC50 of cell viability” value is more than 46 µM. Regarding `Nc1cc(N2CCCCC2)nc(N)[n+]1[O-]` [MINOXIDIL], the “IC50 of cell viability” value was more than 46 µM. Consider `O.O.O=C([O-])[C@H](CC(=O)N1C[C@H]2CCCC[C@H]2C1)Cc1ccccc1.O=C([O-])[C@H](CC(=O)N1C[C@H]2CCCC[C@H]2C1)Cc1ccccc1.[Ca+2]` [MITIGLINIDE CALCIUM HYDRATE], for which the “IC50 of cell viability” value was more than 46 µM. Take `O[C@@H]([C@H](O)[C@H](O)CBr)[C@H](O)CBr` [MITOBRONITOL]: the “IC50 of cell viability” value is more than 46 µM. As to `COc1cc2c(cc1OC)[C@@H](Cc1cc(OC)c(OC)c(OC)c1)[N+](C)(CCCOC(=O)CC/C=C/CCC(=O)OCCC[N+]1(C)CCc3cc(OC)c(OC)cc3[C@H]1Cc1cc(OC)c(OC)c(OC)c1)CC2` (some centres not stated) [MIVACURIUM CHLORIDE], the “IC50 of cell viability” value is more than 46 µM. The same measure for `CN(c1nccc(O)n1)C1CCN(c2nc3ccccc3n2Cc2ccc(F)cc2)CC1` [MIZOLASTINE]: more than 46 µM; for `CN(C)C(=O)CCSC(SCCC(=O)[O-])c1cccc(/C=C/c2ccc3ccc(Cl)cc3n2)c1` (configuration not stated) [MK-571]: more than 46 µM.

With `NC1(CCC1)C2=CC=C(C=C2)C3=C(C=C/4C(=N3)\C=C/N5C(=O)N\N=C45)C6=CC=CC=C6` [MK-2206], the “IC50 of cell viability” value is more than 46 µM. As to `O=C(NCCN1CCOCC1)c1ccc(Cl)cc1` [MOCLOBEMIDE], the “IC50 of cell viability” value is more than 46 µM. The figure for `NC(=O)C[S+]([O-])C(c1ccccc1)c1ccccc1` (configuration not stated) [MODAFINIL] is more than 46 µM; for `CCOC(=O)C(CCc1ccccc1)NC(C)C(=O)N1Cc2cc(OC)c(OC)cc2CC1C(=O)O` (configuration not stated) [MOEXIPRIL HYDROCHLORIDE] it is more than 46 µM. The same measure for `COc1ccc(-c2noc(CC(=O)O)c2-c2ccc(OC)cc2)cc1` [MOFEZOLAC]: more than 46 µM; for `O=C(CCCN1CCN(c2ccc(F)cc2)CC1)NC1c2ccccc2CSc2ccccc21` (configuration not stated) [MONATEPIL MALEATE]: more than 46 µM; for `CCCCCCCC(=O)OCC(O)CO` (configuration not stated) [MONOCTANOIN]: more than 46 µM. The same measure for `Cc1ncc(C[n+]2csc(CCOP(=O)(O)O)c2C)c(N)n1` [MONOPHOSPHOTHIAMINUM]: more than 46 µM; for `CC(C)(O)c1ccccc1CC[C@H](SCC1(CC(=O)[O-])CC1)c1cccc(/C=C/c2ccc3ccc(Cl)cc3n2)c1` [MONTELUKAST SODIUM]: more than 46 µM; for `c1ccc2sc(SN3CCOCC3)nc2c1` [MORPHOLINYLMERCAPTOBENZOTHIAZOLE]: more than 46 µM. `CCOc1cc(N)c(Cl)cc1C(=O)NCC1CN(Cc2ccc(F)cc2)CCO1` (configuration not stated) [MOSAPRIDE CITRATE]: the “IC50 of cell viability” value was more than 46 µM. With `O=C(O)C(O)C(O)C(O)C(O)C(=O)O` (configuration not stated) [MUCIC ACID], the “IC50 of cell viability” value is more than 46 µM.

Turning to `C/C(=C\C(=O)OCCCCCCCCC(=O)O)C[C@@H]1OC[C@H](C[C@@H]2O[C@H]2[C@@H](C)[C@H](C)O)[C@@H](O)[C@H]1O` [MUPIROCIN], the “IC50 of cell viability” value was more than 46 µM.

Turning to `CCCCCCCCCCCCCCNCCO` [MYRALACTUM], the “IC50 of cell viability” value is more than 46 µM.

On to `CO[C@@H]1[C@@H]([C@H](C)[C@@H]2O[C@@]3(CC[C@@](C)([C@H]4CC[C@@](C)([C@H]5O[C@H]([C@H]6O[C@](C)(O)[C@H](C)C[C@@H]6C)C[C@H]5O[C@H]5C[C@@H](OC)[C@H](OC)[C@@H](C)O5)O4)O3)C[C@@H](O)[C@@H]2C)O[C@@](O)(CC(=O)[O-])[C@H](C)[C@H]1OC` [Maduramicin ammonium], for which the “IC50 of cell viability” value is more than 46 µM. For the compound `NCc1ccc([S+](N)(=O)[O-])cc1` [Mafenide hydrochloride], the “IC50 of cell viability” value is more than 46 µM. The same measure for `CCOC(=O)CC(SP(=S)(OC)OC)C(=O)OCC` (configuration not stated) [Malathion]: more than 46 µM. Regarding `O=C(O)/C=C/C(=O)Nc1ccc([S+](=O)([O-])Nc2nccs2)cc1` [Maleilsulfatiazol], the “IC50 of cell viability” value was more than 46 µM. The same measure for `OCC1OC(OC2C(CO)OC(OC3C(CO)OC(O)C(O)C3O)C(O)C2O)C(O)C(O)C1O` (configuration not stated) [Maltotriose]: more than 46 µM; for `O=C1OC2C(O)C(O)OC2C1O` (configuration not stated) [Mannuronic acid lactone]: more than 46 µM; for `Cc1nnc(C(C)C)n1C1C[C@H]2CC[C@@H](C1)N2CC[C@H](NC(=O)C1CCC(F)(F)CC1)c1ccccc1` (some centres not stated) [Maraviroc]: more than 46 µM. Take `CN1CCN(c2c(F)cc3c(=O)c(C(=O)O)cn4c3c2OCN4C)CC1` [Marbofloxacin]: the “IC50 of cell viability” value was more than 46 µM. With `C=C1/C(=C\C=C2/CCC[C@@]3(C)[C@@H]([C@H](C)OCCC(C)(C)O)CC[C@@H]23)C[C@@H](O)C[C@@H]1O` [Maxacalcitol], the “IC50 of cell viability” value was more than 46 µM. The same measure for `CC(N[NH3+])c1ccccc1` (configuration not stated) [Mebanazine]: more than 46 µM; for `CCN(CCCCOC(=O)c1ccc(OC)c(OC)c1)[C@@H](C)Cc1ccc(OC)cc1` [Mebeverine hydrochloride]: more than 46 µM. `CN1CCc2c(c3ccccc3n2Cc2ccccc2)C1.CN1CCc2c(c3ccccc3n2Cc2ccccc2)C1.O=[S+]([O-])(O)c1cccc2c([S+](=O)([O-])O)cccc12` [Mebhydroline 1,5-naphtalenedisulfonate]: the “IC50 of cell viability” value was more than 46 µM. In the case of `CCOC(=O)c1c(C)n(C)c2ccc(O)cc12` [Mecarbinate], the “IC50 of cell viability” value is more than 46 µM. In the case of `COC(=O)[C@@H](N)CS` [Mecisteina], the “IC50 of cell viability” value is more than 46 µM. Regarding `CN(C)[C@H]\1[C@@H]2[C@@H](O)[C@@H]\3C(=C)C4=C(Cl)C=CC(=C4C(=O)C3=C(\O)[C@@]2(O)C(=O)\C(=C1O)C(N)=O)O.OC(=O)C5=C(O)C=CC(=C5)[S+](O)([O-])=O` [Meclocycline sulfosalicylate], the “IC50 of cell viability” value is more than 46 µM. Turning to `Cc1ccc(Cl)c(Nc2ccccc2C(=O)[O-])c1Cl.O.[Na+]` [Meclofenamic acid sodium salt monohydrate], the “IC50 of cell viability” value is more than 46 µM. On to `CN(C)CCOC(=O)COc1ccc(Cl)cc1` [Meclofenoxate hydrochloride], for which the “IC50 of cell viability” value is more than 46 µM.

These data come from the supplement of paper PMC3974653.
